Laboratory results as given in patent US7390830B1, “Remedies or prophylactics for diseases in association with chemokines” (Teijin Limited, priority 1999, dated 2008).

Each compound was assayed on THP-1 cells (assay: Inhibitory activity against cell chemotaxis caused by MCP-1). Settings: Homo sapiens, MCP-1 20 ng/mL.
Format: cell-based
Description: In order to determine the inhibitory activity of the compounds according to the present invention against the cell chemotaxis, human monocytic leukemia cell line THP-1 was used as chemotactic cells according to the method of Fall et al. (J. Immunol. Methods, 1980, 33, 239-247) to determine the cell chemotaxis caused by monocyte chemotactic factor MCP-1 as follows: Namely, 2×10^6 cells/mL of the THP-1 cells [suspended in RPMI-1640 (Flow Laboratories Co.) 10% FCS] were placed in the upper chamber (200 μL) of a 96-well microchemotaxis chamber (Neuroprobe®), and human recombinant MCP-1 (Peprotech Co.) diluted with the same solution so as to provide the final concentration of 20 ng/mL was placed in the lower chamber (35 μL). A polycarbonate filter (PVP-free, Neuroprobe®) was placed between the two chambers. These were incubated in the presence of 5% of CO2 at 37° C. for 2 hours.
The filter was removed, and the cells which had migrated to the undersurface of the filter were immobilized, stained using Diff Quick (Kokusai Shiyaku Co.) and then measured at a measuring wavelength of 550 nm using a plate reader (Molecular Device Co.) to determine the means of 3 wells. Thereby, the indication of the number of cells migrated was obtained. The test compound together with the THP-1 cells was added to the upper chamber at various concentrations to determine the inhibitory activity against cell chemotaxis [degree of inhibition: IC50 (μM)].
For `O=C(CNC(=O)c1cccc(C(F)(F)F)c1)NCC1CCN(Cc2ccc(Cl)cc2)CC1` [Compd. No. 461, 1-(4-chlorobenzyl)-4-[[N-[3-(trifluoromethyl)benzoyl]glycyl]aminomethyl]piperidine], the IC50 was ≤ 100 nM. `Nc1ccc(Br)cc1C(=O)NCC(=O)NCC1CCN(Cc2ccc(Cl)cc2)CC1` [Compd. No. 1042, 4-[N-(2-amino-5-bromobenzoyl)glycyl]aminomethyl-1-(4-chlorobenzyl)piperidine] was tested, and the IC50 was ≤ 100 nM. In the case of `Cc1noc(C)c1CN1CC[C@@H](NC(=O)CNC(=O)c2cc(F)cc(C(F)(F)F)c2)C1` [Compd. No. 1191, (R)-3-[N-[3-fluoro-5-(trifluoromethyl)benzoyl]glycyl]amino-1-(3,5-dimethylisoxazol-4-ylmethyl)-pyrrolidine], the IC50 is reported as ≤ 100 nM. For `C=Cc1ccc(CN2CC[C@@H](NC(=O)CNC(=O)c3cc(C(F)(F)F)ccc3N)C2)cc1` [Compd. No. 1701, (R)-3-[[N-(2-amino-5-(trifluoromethyl)benzoyl)glycyl]amino]-1-(4-vinylbenzyl)pyrrolidine], the IC50 was ≤ 100 nM. `COc1ccc(CN2CC[C@@H](NC(=O)CNC(=O)c3cc(OC(F)(F)F)ccc3N)C2)cc1O` [Compd. No. 1896, (R)-3-[[N-(2-amino-5-trifluoromethoxybenzoyl)glycyl]amino]-1-(3-hydroxy-4-methoxybenzyl)pyrrolidine] was tested, and the IC50 was ≤ 100 nM. In the case of `Nc1cc(Cl)ccc1CN1CCC(CNC(=O)CNC(=O)c2cc(C(F)(F)F)ccc2N)CC1` [Compd. No. 1919, 4-[[N-(2-amino-5-trifluoromethylbenzoyl)glycyl]aminomethyl]-1-(2-amino-4-chlorobenzyl)piperidine], the IC50 is reported as ≤ 100 nM. For `Nc1cc(Cl)ccc1CN1CC[C@@H](NC(=O)CNC(=O)c2cc(OC(F)(F)F)ccc2N)C1` [Compd. No. 1921, (R)-3-[[N-(2-amino-5-trifluoromethoxybenzoyl)glycyl]amino]-1-(2-amino-4-chlorobenzyl)pyrrolidine], the IC50 was ≤ 100 nM. `Cc1ccc(CN2CCC(CNC(=O)CNC(=O)c3cc(F)c(F)cc3N)CC2)cc1N` [Compd. No. 2114, 4-[[N-(2-amino-4,5-difluorobenzoyl)glycyl]aminomethyl]-1-(3-amino-4-methylbenzyl)piperidine] was tested, and the IC50 was ≤ 100 nM. For `Nc1cc(CN2CC[C@@H](NC(=O)CNC(=O)c3cc(C(F)(F)F)ccc3N)C2)ccc1Cl` [Compd. No. 2132, (R)-1-(3-amino-4-chlorobenzyl)-3-[[N-(2-amino-5-trifluoromethylbenzoyl)glycyl]amino]pyrrolidine], the IC50 was ≤ 100 nM. In the case of `Nc1cc(CN2CCC(CNC(=O)CNC(=O)c3cc(F)c(F)cc3N)CC2)ccc1O` [Compd. No. 2141, 4-[[N-(2-amino-4,5-difluorobenzoyl)glycyl]aminomethyl]-1-(3-amino-4-hydroxybenzyl)piperidine], the IC50 is reported as ≤ 100 nM. `CNc1cc(CN2CC[C@@H](NC(=O)CNC(=O)c3cc(C(F)(F)F)ccc3N)C2)ccc1O` [Compd. No. 2158, (R)-3-[[N-(2-amino-5-trifluoromethylbenzoyl)glycyl]amino]-1-(3-methylamino-4-hydroxybenzyl)pyrrolidine] was tested, and the IC50 was ≤ 100 nM. With `Nc1ccc(C(F)(F)F)cc1C(=O)NCC(=O)N[C@@H]1CCN(c2ccc3ocnc3c2)C1` [Compd. No. 2189, (R)-3-[[N-(2-amino-5-trifluoromethylbenzoyl)glycyl]amino]-1-(benz[d]oxazol-5-yl)pyrrolidine] the IC50 was ≤ 100 nM.

Each compound was assayed against T1, human MCP-1 binding to THP-1 cells (Homo sapiens, UniProt P41597) (assay: Inhibitory activity against binding of [125I]-labeled human MCP-1 to THP-1 cells (method 2)). Settings: concentration of 1 μM.
T1 construct: endogenous in cells; host or cells: THP-1 (whole cells)
T1 sequence (P41597 1-360 isoform P41597-2): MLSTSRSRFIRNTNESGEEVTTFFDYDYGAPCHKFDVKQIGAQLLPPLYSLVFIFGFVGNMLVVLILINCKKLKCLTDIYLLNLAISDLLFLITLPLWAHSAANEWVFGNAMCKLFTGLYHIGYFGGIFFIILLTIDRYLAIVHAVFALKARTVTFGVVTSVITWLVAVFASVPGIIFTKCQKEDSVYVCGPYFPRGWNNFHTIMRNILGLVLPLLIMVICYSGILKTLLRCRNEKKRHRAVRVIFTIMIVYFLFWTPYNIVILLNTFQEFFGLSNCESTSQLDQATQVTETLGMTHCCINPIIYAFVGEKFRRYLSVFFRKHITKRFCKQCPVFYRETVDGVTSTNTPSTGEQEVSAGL
Description: Two kinds of DNA synthetic primers (5′-[…]-3′ (SEQ ID NO:1) and 5′-[…]-3′) (SEQ ID NO:2) having restriction enzyme recognition sites applied on the basis of the known human MCP-1 gene sequence (see, for example, Yoshimura, T. et al. FEBS Letters 1989, 244, 487-493) were used to amplify a cDNA derived from human vascular endothelial cells (purchased from Kurabow) according to a PCR method. The amplified fragment was cleaved with restriction enzymes (PstI and XbaI) and then ligated into a transfer vector pVL1393 (Invitrogen Co.). The resulting vector was co-transfected with an infectious baculovirus into Sf-9 insect cells. Human MCP-1 gene recombinant baculoviruses were isolated from the obtained supernatant by a plaque assay method.
According to the method of Ishii, K. et al. (see Biochemical and Biophysical Research Communications, 1995, 206, 955-961), 5×10^6 cells of Sf-9 insect cells were infected with 5×10^7 PFU (plaque-forming units) of the above human MCP-1 gene recombinant baculoviruses and cultured in EX-CELL 401 medium for 7 days. The resulting culture supernatant was affinity purified by a heparin-Sepharose column (Pharmacia Co.) and then subjected to reverse phase HPLC (Vydac C18 column) to afford a purified human MCP-1. The protein labeling of the resulting purified human MCP-1 was requested for Amersham Co. to obtain a [^125I]-labeled human MCP-1 expressed with baculovirus (specific activity: 2000 Ci/mmol) prepared by the Bolten Hunter method. The resulting [^125I]-labeled human MCP-1 was used for the following tests.
THP-1 cells which are human monocytic leukemia cell line were suspended in an assay buffer (containing 50 mM of HEPES, 11.0 mM of CaCl2, 5.0 mM of MgCl2 and 0.5% of BSA at pH 7.4) so as to provide 1×10^7 cells/mL to thereby obtain a cell suspension. A solution obtained by diluting the test compound with the assay buffer was used as a test compound solution. A solution prepared by diluting the above [^125I]-labeled human MCP-1 expressed with baculovirus with the assay buffer so as to provide 1 μCi/mL was used as a labeled ligand solution. In a 96-well filter plate (Millipore Co.), were aliquoted 25 μL of the test compound solution, 25 μL of the labeled ligand solution and 50 μL of the cell suspension in the order mentioned for each well. The solutions were stirred (100 μL of the reaction solution) and then incubated at 18° C. for 1 hour.
After completing the reaction, the reaction solution was filtered through a filter, and the filter was washed with 200 μL of cold PBS twice (the reaction solution was filtered after adding 200 μL of the cold PBS). The filter was air-dried, and […] of liquid scintillator was then added by into each well to count the radioactivity retained by the cells on the filter using TopCount (Packard Instrument Co.). The count when 100 ng of the above human MCP-1 expressed with baculovirus(unlabeled) instead of the test compound was added was subtracted as nonspecific adsorption, and the count when the test compound was not added was 100%. Thereby, the inhibitory activity of the test compound against binding of the human MCP-1 to THP-1 cells was calculated. Inhibition ratio (%)={1−(A−B)/(C−B)}×100 (wherein A is the count when the test compound is added; B is the count when 100 ng of the unlabeled human MCP-1 is added; C is the count when only the [^125I]-labeled human MCP-1 is added).
In the case of `Nc1ccc(Cl)cc1C(=O)NCC(=O)N[C@@H]1CCN(Cc2ccc(Cl)cc2)C1` [Compd. No. 1084, (R)-1-(4-chlorobenzyl)-3-[[N-(2-amino-5-chlorobenzoyl)glycyl]amino]pyrrolidine], the inhibition at 1 µM is reported as 50 to 80%. Work on `Cc1ccc(C(=O)NCC(=O)NCC2CCN(Cc3ccc(Cl)cc3)CC2)cc1Br` [Compd. No. 1113, 4-[[N-(3-bromo-4-methylbenzoyl)glycyl]aminomethyl]-1-(4-chlorobenzyl)piperidine] yielded an inhibition at 1 µM of 50 to 80%. In the case of `COc1ccc(CN2CCC(CNC(=O)CNC(=O)c3cccc(C(F)(F)F)c3)CC2)cc1O` [Compd. No. 1452, 1-[3-hydroxy-4-methoxybenzyl]-4-[[N-(3-(trifluoromethyl)benzoyl)glycyl]aminomethyl]piperidine], the inhibition at 1 µM is reported as 20 to 50%. `COCCNC(=O)c1ccc(CN2CCC(CNC(=O)CNC(=O)c3cccc(C(F)(F)F)c3)CC2)cc1` [Compd. No. 1612, 1-[4-[N-(2-methoxyethyl)carbamoyl]benzyl]-4-[[N-(3-(trifluoromethyl)benzoyl)glycyl]aminomethyl]piperidine] showed an inhibition at 1 µM of 20 to 50%. For `Nc1cc(F)c(F)cc1C(=O)NCC(=O)NCC1CCN(c2ccc3nonc3c2)CC1` [Compd. No. 2130, 4-[[N-(2-amino-4,5-difluorobenzoyl)glycyl]aminomethyl]-1-(benzo[c]furazan-5-yl)piperidine], the inhibition at 1 µM was 20 to 50%. Work on `Cc1noc(C)c1N1CCC(CNC(=O)CNC(=O)c2cc(F)c(F)cc2N)CC1` [Compd. No. 2131, 4-[[N-(2-amino-4,5-difluorobenzoyl)glycyl]aminomethyl]-1-(3,5-dimethylisoxazol-4-yl)piperidine] yielded an inhibition at 1 µM of 20 to 50%. `COc1ncc(CN2CC[C@@H](NC(=O)CNC(=O)c3cc(C(F)(F)F)ccc3N)C2)c(OC)n1` [Compd. No. 2175, (R)-3-[[N-(2-amino-5-trifluoromethylbenzoyl)glycyl]amino]-1-(2,4-dimethoxypyrimidin-5-ylmethyl)pyrrolidine] gave an inhibition at 1 µM of 50 to 80%. For `Nc1ccc(C(F)(F)F)cc1C(=O)NCC(=O)N[C@@H]1CCN(c2ccc3ocnc3c2)C1` [Compd. No. 2189, (R)-3-[[N-(2-amino-5-trifluoromethylbenzoyl)glycyl]amino]-1-(benz[d]oxazol-5-yl)pyrrolidine], the inhibition at 1 µM was > 80%.
